Results as given in the NIST ThermoML archive (doi:10.1016/j.jct.2006.05.004).

What was measured:
[1] = xn = mol fraction of the nth substance listed; details: 298.15 K, 101 kPa, Liquid
[2] = excess molar enthalpy (molar enthalpy of mixing); xn = mol fraction of the nth substance listed; details: 298.15 K, 101 kPa, Liquid

BrCCBr [1,2-dibromoethane] + CCC(=O)OC
Details | excess molar enthalpy [kJ/mol] | mass density [kg/m3]
[1], x2 = 0.0544 | – | 2090.48
[1], x2 = 0.1086 | – | 2015.14
[1], x2 = 0.1617 | – | 1942.18
[1], x2 = 0.213 | – | 1872.81
[1], x2 = 0.2714 | – | 1794.99
[1], x2 = 0.3254 | – | 1724.12
[1], x2 = 0.4447 | – | 1570.72
[1], x2 = 0.5056 | – | 1494.18
[1], x2 = 0.561 | – | 1425.55
[1], x2 = 0.6166 | – | 1357.57
[1], x2 = 0.6838 | – | 1276.41
[1], x2 = 0.743 | – | 1205.94
[1], x2 = 0.8086 | – | 1129
[1], x2 = 0.8715 | – | 1056.36
[1], x2 = 0.9358 | – | 982.68
[2], x1 = 0.0552 | 0.0448 | –
[2], x1 = 0.1177 | 0.0696 | –
[2], x1 = 0.18 | 0.0864 | –
[2], x1 = 0.2446 | 0.09 | –
[2], x1 = 0.3072 | 0.0851 | –
[2], x1 = 0.3659 | 0.075 | –
[2], x1 = 0.4203 | 0.059 | –
[2], x1 = 0.4702 | 0.0393 | –
[2], x1 = 0.4789 | 0.0275 | –
[2], x1 = 0.5086 | 0.0195 | –
[2], x1 = 0.5255 | 0.0103 | –
[2], x1 = 0.5837 | -0.0105 | –
[2], x1 = 0.6456 | -0.0215 | –
[2], x1 = 0.7119 | -0.0257 | –
[2], x1 = 0.7852 | -0.0281 | –
[2], x1 = 0.8597 | -0.0229 | –
[2], x1 = 0.9321 | -0.012 | –

BrCCCCBr [1,4-dibromobutane] + CCCC(=O)OC
Details | excess molar enthalpy [kJ/mol] | mass density [kg/m3]
[1], x2 = 0.121 | – | 1710.83
[1], x2 = 0.1809 | – | 1656.55
[1], x2 = 0.2384 | – | 1604.18
[1], x2 = 0.2953 | – | 1552.31
[1], x2 = 0.3601 | – | 1492.93
[1], x2 = 0.4182 | – | 1439.44
[1], x2 = 0.4848 | – | 1377.96
[1], x2 = 0.5382 | – | 1328.46
[1], x2 = 0.5989 | – | 1272
[1], x2 = 0.653 | – | 1221.36
[1], x2 = 0.7699 | – | 1111.48
[1], x2 = 0.8252 | – | 1059.19
[1], x2 = 0.8804 | – | 1006.8
[2], x2 = 0.0662 | 0.0466 | –
[2], x2 = 0.1525 | 0.0794 | –
[2], x2 = 0.2456 | 0.0972 | –
[2], x2 = 0.3392 | 0.0973 | –
[2], x2 = 0.4222 | 0.0795 | –
[2], x2 = 0.4708 | 0.0651 | –
[2], x2 = 0.5515 | 0.0311 | –
[2], x2 = 0.6276 | 0.0026 | –
[2], x2 = 0.6882 | -0.0153 | –
[2], x2 = 0.7845 | -0.0226 | –
[2], x2 = 0.8702 | -0.0189 | –
[2], x2 = 0.9455 | -0.0107 | –

BrCCCCBr [1,4-dibromobutane] + COC=O
Details | excess molar enthalpy [kJ/mol] | mass density [kg/m3]
[1], x2 = 0.0901 | – | 1776.76
[1], x2 = 0.1948 | – | 1721.83
[1], x2 = 0.283 | – | 1670.26
[1], x2 = 0.3632 | – | 1619.15
[1], x2 = 0.4351 | – | 1569.44
[1], x2 = 0.5042 | – | 1517.68
[1], x2 = 0.5678 | – | 1466.2
[1], x2 = 0.6267 | – | 1414.75
[1], x2 = 0.6804 | – | 1364.36
[1], x2 = 0.7742 | – | 1267.13
[1], x2 = 0.8172 | – | 1217.73
[1], x2 = 0.8611 | – | 1164.21
[1], x2 = 0.8985 | – | 1115.55
[1], x2 = 0.937 | – | 1062.14
[1], x2 = 0.9687 | – | 1015.8
[2], x2 = 0.1163 | 0.395 | –
[2], x2 = 0.2218 | 0.635 | –
[2], x2 = 0.3327 | 0.859 | –
[2], x2 = 0.4395 | 0.985 | –
[2], x2 = 0.518 | 1.02 | –
[2], x2 = 0.581 | 1.01 | –
[2], x2 = 0.5984 | 1.01 | –
[2], x2 = 0.6591 | 0.945 | –
[2], x2 = 0.7346 | 0.819 | –
[2], x2 = 0.8107 | 0.648 | –
[2], x2 = 0.8851 | 0.434 | –
[2], x2 = 0.9503 | 0.21 | –

BrCCBr [1,2-dibromoethane] + CCCCC(=O)OC
Details | excess molar enthalpy [kJ/mol] | mass density [kg/m3]
[1], x2 = 0.0413 | – | 2086.33
[1], x2 = 0.0834 | – | 2009.4
[1], x2 = 0.1257 | – | 1934.54
[1], x2 = 0.1717 | – | 1857.45
[1], x2 = 0.2221 | – | 1776.23
[1], x2 = 0.2644 | – | 1711.22
[1], x2 = 0.3124 | – | 1640.62
[1], x2 = 0.3717 | – | 1557.38
[1], x2 = 0.4812 | – | 1414.72
[1], x2 = 0.5471 | – | 1335.17
[1], x2 = 0.6142 | – | 1258.34
[1], x2 = 0.6822 | – | 1184.61
[1], x2 = 0.755 | – | 1109.85
[1], x2 = 0.833 | – | 1033.97
[1], x2 = 0.9091 | – | 963.97
[2], x2 = 0.0457 | 0.0093 | –
[2], x2 = 0.1054 | 0.0151 | –
[2], x2 = 0.1756 | 0.0121 | –
[2], x2 = 0.2495 | -0.0032 | –
[2], x2 = 0.3112 | -0.0247 | –
[2], x2 = 0.3523 | -0.0428 | –
[2], x2 = 0.3893 | -0.0588 | –
[2], x2 = 0.4631 | -0.0768 | –
[2], x2 = 0.5105 | -0.0861 | –
[2], x2 = 0.5845 | -0.0906 | –
[2], x2 = 0.6874 | -0.0827 | –
[2], x2 = 0.7978 | -0.0624 | –
[2], x2 = 0.9098 | -0.0337 | –

BrCCCBr [1,3-dibromopropane] + COC=O
Details | excess molar enthalpy [kJ/mol] | mass density [kg/m3]
[1], x2 = 0.168 | – | 1858.59
[1], x2 = 0.2514 | – | 1796.92
[1], x2 = 0.3294 | – | 1735.49
[1], x2 = 0.4017 | – | 1674.57
[1], x2 = 0.4684 | – | 1614.73
[1], x2 = 0.5278 | – | 1558.51
[1], x2 = 0.591 | – | 1495.15
[1], x2 = 0.6438 | – | 1439.24
[1], x2 = 0.7014 | – | 1374.75
[1], x2 = 0.7953 | – | 1261.18
[1], x2 = 0.8394 | – | 1203.31
[1], x2 = 0.8849 | – | 1141.17
[1], x2 = 0.9258 | – | 1082.23
[2], x2 = 0.0766 | 0.304 | –
[2], x2 = 0.1698 | 0.57 | –
[2], x2 = 0.2646 | 0.744 | –
[2], x2 = 0.3543 | 0.853 | –
[2], x2 = 0.4503 | 0.915 | –
[2], x2 = 0.5147 | 0.925 | –
[2], x2 = 0.5752 | 0.904 | –
[2], x2 = 0.6318 | 0.862 | –
[2], x2 = 0.6814 | 0.803 | –
[2], x2 = 0.7238 | 0.736 | –
[2], x2 = 0.7605 | 0.667 | –
[2], x2 = 0.8277 | 0.513 | –
[2], x2 = 0.8783 | 0.388 | –
[2], x2 = 0.9299 | 0.248 | –

BrCCCBr [1,3-dibromopropane] + CCCCC(=O)OC
Details | excess molar enthalpy [kJ/mol] | mass density [kg/m3]
[1], x2 = 0.0534 | – | 1896.4
[1], x2 = 0.0937 | – | 1841.97
[1], x2 = 0.1477 | – | 1771.31
[1], x2 = 0.188 | – | 1720.07
[1], x2 = 0.2439 | – | 1650.83
[1], x2 = 0.2975 | – | 1586.35
[1], x2 = 0.3439 | – | 1532.03
[1], x2 = 0.4116 | – | 1455.16
[1], x2 = 0.4656 | – | 1395.81
[1], x2 = 0.5216 | – | 1335.88
[1], x2 = 0.5922 | – | 1262.69
[1], x2 = 0.6481 | – | 1206.41
[1], x2 = 0.7047 | – | 1151.1
[1], x2 = 0.7835 | – | 1076.35
[1], x2 = 0.8493 | – | 1016.07
[1], x2 = 0.9201 | – | 953.2
[2], x2 = 0.0492 | 0.0239 | –
[2], x2 = 0.1163 | 0.0387 | –
[2], x2 = 0.1938 | 0.0407 | –
[2], x2 = 0.2736 | 0.0321 | –
[2], x2 = 0.338 | 0.0176 | –
[2], x2 = 0.41 | -0.0099 | –
[2], x2 = 0.4582 | -0.0311 | –
[2], x2 = 0.4998 | -0.047 | –
[2], x2 = 0.5481 | -0.0609 | –
[2], x2 = 0.6786 | -0.0662 | –
[2], x2 = 0.7994 | -0.0551 | –
[2], x2 = 0.9065 | -0.0355 | –
